{"source": "patent EP1266900A1", "about": "“Carbamates of rapamycin” (Wyeth, priority 1992, dated 1994)", "key": {"[1]": {"tested_on": "cells from the thymus of normal BALB/c mice", "experiment": "comitogen-induced thymocyte proliferation procedure (LAF)", "type": "cell-based", "details": "for IC50: thymocytes cultured for 72 hours with PHA and IL-1, tritiated thymidine incorporation, read-out: LAF IC50; for LAF (ratio): ratio compared with rapamycin, greater than 1 = inhibited thymocyte proliferation to a greater extent than rapamycin", "procedure": "(§1) Immunosuppressive activity for representative compounds of this invention was evaluated in an in vitro standard pharmacological test procedure to measure lymphocyte proliferation (LAF) and in an in vivo standard pharmacological test procedure which evaluated the survival time of a pinch skin graft.\nThe comitogen-induced thymocyte proliferation procedure (LAF) was used as an in vitro measure of the immunosuppressive effects of representative compounds. Briefly, cells from the thymus of normal BALB/c mice are cultured for 72 hours with PHA and IL-1 and pulsed with tritiated thymidine during the last six hours. Cells are cultured with and without various concentrations of rapamycin, cyclosporin A, or test compound. Cells are harvested and incorporated radioactivity is determined. Inhibition of lymphoproliferation is assessed as percent change in counts per minute from non-drug treated controls. For each compound evaluated, rapamycin was also evaluated for the purpose of comparison. An IC50 was obtained for each test compound as well as for rapamycin. […] A positive ratio indicates immunosuppressive activity. […] Calculation of the ratio is shown below. (()^3 H-control thymus cells -)/(()^3 H-control thymus cells -)(()^3 H-rapamycin-treated thymus cells)/(()^3 H-test compound-treated cells) [formula]"}, "pinch skin graft": {"tested_on": "pinch skin graft", "experiment": "pinch skin graft survival time, in vivo", "parameters": "species or system male C3H(H-2K) recipients", "details": "dose of 4 mg/kg, intraperitoneally or orally, untreated grafts usually rejected within 6-7 days", "procedure": "as §1\nRepresentative compounds of this invention were also evaluated in an in vivo test procedure designed to determine the survival time of pinch skin graft from male BAB/c donors transplanted to male C3H(H-2K) recipients. The method is adapted from Billingham R.E. and Medawar P.B., J. Exp. Biol. 28:385-402, (1951). Briefly, a pinch skin graft from the donor was grafted on the dorsum of the recipient as a allograft, and an isograft was used as control in the same region. The recipients were treated with either varying concentrations of test compounds intraperitoneally or orally. Rapamycin was used as a test control. Untreated recipients serve as rejection control. The graft was monitored daily and observations were recorded until the graft became dry and formed a blackened scab. This was considered as the rejection day. The mean graft survival time (number of days ± S.D.) of the drug treatment group was compared with the control group. […] Results are expressed as the mean survival time in days. Untreated (control) pinch skin grafts are usually rejected within 6-7 days. The results shown in Table 1 are based on a dose of 4 mg/kg of test compound. A survival time of 12.0 ± 1.7 days was obtained for rapamycin at 4 mg/kg."}}, "note": "Several values for one entry are separate records, joined by “and”; a condition that tells them apart may be missing. Equal values may be shown once. Where a name gives a salt, the structure may show the parent alone. Read-outs that look alike come from different tables or passages of the source.", "data": [{"compound": "CO[C@H]1C[C@@H]2CC[C@@H](C)[C@@](O)(O2)C(=O)C(=O)N2CCCC[C@H]2C(=O)O[C@H]([C@H](C)C[C@@H]2CC[C@@H](OC(=O)NN)[C@H](OC)C2)CC(=O)[C@H](C)/C=C(\\C)[C@@H](O)[C@@H](OC)C(=O)[C@H](C)C[C@H](C)/C=C/C=C/C=C/1C", "note": "[Example 4, Rapamycin 42-ester with aminocarbamic acid]", "values": [{"measurement": "IC50", "setting": "[1]; Mus musculus, Thymocyte, 72 h", "value": 10, "unit": "nM"}, {"measurement": "LAF (ratio)", "setting": "[1]", "value": 0.45}, {"measurement": "Skin Graft (days ± SD), mean survival time", "setting": "pinch skin graft", "value": "9.8 ± 0.8", "unit": "days"}]}, {"compound": "Rapamycin 42-ester with 2-(2-aminoethoxy)ethyl carbamic acid [Example 21]", "values": [{"measurement": "LAF (ratio)", "setting": "[1]", "value": 0.6}, {"measurement": "IC50", "setting": "[1]", "value": 6, "unit": "nM"}, {"measurement": "Skin Graft (days ± SD), mean survival time", "setting": "pinch skin graft", "value": "10.4 ± 0.5", "unit": "days"}]}, {"compound": "CO[C@H]1C[C@@H]2CC[C@@H](C)[C@@](O)(O2)C(=O)C(=O)N2CCCC[C@H]2C(=O)O[C@H]([C@H](C)C[C@@H]2CC[C@@H](OC(=O)NCCO)[C@H](OC)C2)CC(=O)[C@H](C)/C=C(\\C)[C@@H](O)[C@@H](OC)C(=O)[C@H](C)C[C@H](C)/C=C/C=C/C=C/1C", "note": "[Example 2, Rapamycin 42-ester with 2-hydroxyethyl carbamic acid]", "values": [{"measurement": "LAF (ratio)", "setting": "[1]", "value": "1.22 and 1.09"}, {"measurement": "Skin Graft (days ± SD), mean survival time", "setting": "pinch skin graft", "value": "10.3 ± 0.8", "unit": "days"}]}, {"compound": "CO[C@H]1C[C@@H]2CC[C@@H](C)[C@@](O)(O2)C(=O)C(=O)N2CCCC[C@H]2C(=O)O[C@H]([C@H](C)C[C@@H]2CC[C@@H](OC(=O)NCc3cccnc3)[C@H](OC)C2)CC(=O)[C@H](C)/C=C(\\C)[C@@H](O)[C@@H](OC)C(=O)[C@H](C)C[C@H](C)/C=C/C=C/C=C/1C", "note": "[Example 13, Rapamycin 42-ester with 3-pyridinylmethyl carbamic acid hydrochloride salt]", "values": [{"measurement": "IC50", "setting": "[1]; hydrochloride salt", "value": 0.9, "unit": "nM"}, {"measurement": "Skin Graft (days ± SD), mean survival time", "setting": "pinch skin graft; hydrochloride salt, 4 mg/kg", "value": "9.50 ± 0.6", "unit": "days"}]}, {"compound": "CO[C@H]1C[C@@H]2CC[C@@H](C)[C@@](O)(O2)C(=O)C(=O)N2CCCC[C@H]2C(=O)O[C@H]([C@H](C)C[C@@H]2CC[C@@H](OC(=O)NCCc3ccccn3)[C@H](OC)C2)CC(=O)[C@H](C)/C=C(\\C)[C@@H](O)[C@@H](OC)C(=O)[C@H](C)C[C@H](C)/C=C/C=C/C=C/1C", "note": "[Example 6, Rapamycin 42-ester with 2-(pyridin-2-yl)-ethyl carbamic acid]", "values": [{"measurement": "LAF (ratio)", "setting": "[1]", "value": 5.1}, {"measurement": "IC50", "setting": "[1]", "value": 0.8, "unit": "nM"}, {"measurement": "Skin Graft (days ± SD), mean survival time", "setting": "pinch skin graft; 4 mg/kg", "value": "11.40 ± 0.6", "unit": "days"}]}]}
